Experimental data published in PMC13464545, “Mouse Norovirus Uses Host Metabolites to Enhance Receptor Binding and Evade Immune Recognition” (Medical research archives, 2022).

Biological target: T1, MNV P domain (Murine norovirus 1, UniProt Q80J94)
T1 construct: gene ORF2; C-terminal protruding (P) domain of VP1, expressed as soluble form without the shell domain; dimerizes
Test: isothermal titration calorimetry
Type: binding

T1 sequence (Q80J94 229-541): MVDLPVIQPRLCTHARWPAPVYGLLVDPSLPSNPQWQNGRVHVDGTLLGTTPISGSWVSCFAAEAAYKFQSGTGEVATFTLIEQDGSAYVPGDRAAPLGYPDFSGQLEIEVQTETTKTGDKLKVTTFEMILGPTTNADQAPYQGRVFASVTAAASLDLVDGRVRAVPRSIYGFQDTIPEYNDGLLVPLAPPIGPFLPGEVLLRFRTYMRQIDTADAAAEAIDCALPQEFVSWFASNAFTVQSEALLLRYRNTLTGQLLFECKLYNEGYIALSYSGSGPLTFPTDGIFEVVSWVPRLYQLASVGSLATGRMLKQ

Compound C[C@H](CCC(=O)NCC(=O)O)[C@H]1CC[C@H]2[C@@H]3[C@H](O)C[C@@H]4C[C@H](O)CC[C@]4(C)[C@H]3CC[C@]12C [GCDCA] has a Kd of ~13 µM.
